Data reported in US20210198685A1, “PLANTS CONTAINING ELITE EVENT EE-GM4 AND METHODS AND KITS FOR IDENTIFYING SUCH EVENT IN BIOLOGICAL SAMPLES, AND TREATMENT THEREOF” (priority 2018, published 2021).

Tested on: soybean plants containing event EE-GM4
Assay: HPPD inhibitor herbicide tolerance field trials on soybean plants containing EE-GM4
Type: in vivo, Glycine max
Settings: for average maximum phytotoxicity: plants with EE-GM4; for tolerance / crop damage of plants with EE-GM4, herbicide applied post-emergence / tolerance of plants with EE-GM4 to herbicide applied pre-emergence: field, 2 years; for tolerance / crop damage of plants with EE-GM4, herbicide applied post-emergence: post-emergence at V2-V3 stage with crop oil concentrate and ammonium sulfate, 2x dose (210 gr/ha); for tolerance of plants with EE-GM4 to herbicide applied pre-emergence: 4x dose (420 gr/ha IFT, 840 gr/ha mesotrione)
Source text: Numbers in ( ) below a treatment give the number of trials included in the bar, the number on top of each bar gives the average maximum phytotoxicity value for that treatment. Treatments applied were: IFT=isoxaflutole, MST=mesotrione, PE=pre-emergence, PO=post-emergence (at V2-V3 stage, with adjuvants crop oil concentrate and ammonium sulfate added to increase herbicide activity). Rates shown are in gram active ingredient/hectare (4× dose in pre-emergence, 2× dose in post-emergence).
Tolerance of plants comprising EE-GM4 to HPPD inhibitor herbicides was tested at different locations in the field over 2 years. […] All post-emergence treatments were at the V2-V3 stage, with adjuvants crop oil concentrate and ammonium sulfate added to increase herbicide activity.
The “maximum phytotoxicity” as used herein is the highest phytotoxicity rating recorded at any observation during the duration of a trial (with 3 to 4 observations per trial). In existing weed control applications, a normal (1×) dose for isoxaflutole (IFT) in pre- or post-emergence application and for MST in post-emergence application is 105 gr/ha, and a normal (1×) dose for mesotrione in pre-emergence application is 210 gr/ha.
Also, in several field trials across 2 years, soybean plants with event EE-GM4 had good tolerance towards experimental HPPD inhibitor compound 2-methyl-N-(5-methyl-1,3,4-oxadiazol-2-yl)-3-(methylsulfonyl)-4-(trifluoromethyl)benzamide (U.S. Pat. No. 9,101,141) when applied pre-emergence at 400 gr ai/ha or post-emergence at 200 gr ai/ha, respectively (the average maximum phytotoxicity value for each treatment was below 20%). […] All post-emergence treatments were at the V2-V3 stage, with adjuvants crop oil concentrate and ammonium sulfate added to increase herbicide activity.

Structure (SMILES) | average maximum phytotoxicity (post-emergence at 100-150 gr ai/ha, V2-V3 stage with adjuvants) [%] | average maximum phytotoxicity (post-emergence at 200 gr ai/ha, V2-V3 stage with adjuvants) | average maximum phytotoxicity (pre-emergence at 400 gr ai/ha, field trials across 2 years) | tolerance / crop damage of plants with EE-GM4, herbicide applied post-emergence | tolerance of plants with EE-GM4 to herbicide applied pre-emergence
CSc1c(C(F)(F)F)ccc(C(=O)Nc2nnnn2C)c1Cl [2-chloro-3-(methylsulfanyl)-N-(1-methyl-1H-tetrazol-5-yl)-4-(trifluoromethyl)benzamide] | 30 |  |  |  | 
Cc1nnc(NC(=O)c2ccc(C(F)(F)F)c(S(C)(=O)=O)c2C)o1 [2-methyl-N-(5-methyl-1,3,4-oxadiazol-2-yl)-3-(methylsulfonyl)-4-(trifluoromethyl)benzamide] |  | below 20% | below 20% |  | 
CS(=O)(=O)c1cc(C(F)(F)F)ccc1C(=O)c1cnoc1C1CC1 [isoxaflutole, (5-cyclopropyl-4-isoxazolyl)[2-(methylsulfonyl)-4-(trifluoromethyl)phenyl]methanone] |  |  |  | crop damage was a bit higher | commercially relevant tolerance
CS(=O)(=O)c1ccc(C(=O)C2C(=O)CCCC2=O)c([N+](=O)[O-])c1 [mesotrione, 2-[4-(Methylsulfonyl)-2-nitrobenzoyl]cyclohexane-1,3-dione] |  |  |  | commercially relevant tolerance | commercially relevant tolerance
